Data reported in patent US7268224B2, “Human glucocorticoid receptor 1A promoter and splice variants” (Board of Supervisors of Louisianna State University and …, priority 2000, dated 2007).

Key:
[1] = test system: IRF-1 and IRF-2 protein levels in Jurkat cells; assay: IRF protein levels in interferon-treated Jurkat cells; assay type: cell-based, human; conditions: data not shown
Excerpt: By identifying transcription factor binding sites in the 1A promoter and exon, we will determine whether activation of any of these factors will directly activate the hGR 1A promoter. […] See H. Harada et al., “Structurally Similar but Functionally Distinct Factors, IRF-1 and IRF-2, Bind to the Same Regulatory Elements of IFN and IFN-Inducible Genes,” Cell, vol. 58, pp. 729-739 (1989).

[2] = test system: hormone-resistant clones of human CEM-C7, T-ALL cells, or mouse SAK8 T-lymphoma cells; conditions: hormone-resistant clones in culture; cited from earlier work
[3] = test system: GR exon 1 transcripts in CEM-C7 cells; assay: RT-PCR of GR exon 1 transcripts after hormone treatment, CEM-C7; conditions: 1 μM
[4] = test system: GR 1A3 exon-containing transcripts in CEM-C7 cells; assay: Northern blot of GR exon 1A transcripts after glucocorticoid treatment; assay type: cell-based, human; conditions: 1 μM, data not shown
Excerpt: Glucocorticoid hormone treatment is known to up-regulate the levels of both GR mRNA and GR protein in immature T-lymphocytes and in some T-lymphoblasts that undergo apoptosis following hormone treatment. See Denton et al., (1993); and L. P. Eisen et al., “Positive Regulation of the Glucocorticoid Receptor in Human T-Cells Sensitive to the Cytolytic Effects of Glucocorticoids,” J. Biol. Chem., vol. 263, pp. 12044-12048 (1988). The human CEM-C7 acute lymphoblastic leukemia (ALL) cell line has served as a model system for glucocorticoid-sensitive human T-cell ALL. See M. R. Norman and E. B. Thompson, “Characterization of a Glucocorticoid-Sensitive Human Lymphoid Cell Line,” Cancer Res., vol. 37, pp. 3785-3791 (1977). CEM-C7 cells were treated with 1 μM dexamethasone (a glucocorticoid analogue) for various periods of time, from 6 hr to 48 hr. RNA was then extracted, and northern blots were prepared and probed with the GR-1A-exon-specific probes (exon 1A1, exon 1A2, and exon 1A3; Table 1). […] Up-regulation of exon 1A1 and exon 1A2 transcripts was also observed (data not shown).

Molecule | IRF-1 protein levels [1] | IRF-2 protein levels [1] | sensitivity to glucocorticoid-mediated killing [2] | increase in exon 1A3-containing transcripts [3] | exon 1A1 and exon 1A2 transcripts [4]
interferon-α | dramatic increase | not IRF-2 |  |  | 
Nc1ncn([C@@H]2O[C@H](CO)[C@@H](O)[C@H]2O)c(=O)n1 [5-azacytidine] |  |  | become stably sensitive to glucocorticoid-mediated killing |  | 
C[C@@H]1C[C@H]2[C@@H]3CCC4=CC(=O)C=C[C@]4(C)[C@@]3(F)[C@@H](O)C[C@]2(C)[C@@]1(O)C(=O)CO [dexamethasone] |  |  |  | 2.5 fold | Up-regulation
interferon-γ: interferon used to treat Jurkat cells (protein, UniProt P01579 24-161, looked up) Interferon gamma: QDPYVKEAENLKKYFNAGHSDVADNGTLFLGILKNWKEESDRKIMQSQIVSFYFKLFKNFKDDQSIQKSVETIKEDMNVKFFNSNKKKRDDFEKLTNYSVTDLNVQRKAIHELIQVMAELSPAAKTGKRKRSQMLFRG | dramatic increase | not IRF-2 |  |  | 
